# According to PubChem BioAssay (NCI):
#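 Compound exposure: 48 hours, 5 concentrations, 96-well plates. TGI marks complete inhibition of growth.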
# Experiments:
# Assay in all cases: DTP human tumour cell line panel, 48 h
# SNB-75 CNS = system: SNB-75 CNS
# SNB-19 CNS = system: SNB-19 CNS
# HCT-116 colon = system: HCT-116 colon
# SK-MEL-2 melanoma = system: SK-MEL-2 melanoma
# MCF7 breast = system: MCF7 breast
# MDA-N = system: MDA-N
# CCRF-CEM leukemia = system: CCRF-CEM leukemia
# UACC-257 melanoma = system: UACC-257 melanoma
# MOLT-4 leukemia = system: MOLT-4 leukemia
# ACHN renal = system: ACHN renal
# NCI-H522 lung = system: NCI-H522 lung
# TK-10 renal = system: TK-10 renal
# K-562 leukemia = system: K-562 leukemia
# NCI-H226 lung = system: NCI-H226 lung
# KM12 colon = system: KM12 colon
# UACC-62 melanoma = system: UACC-62 melanoma
# HL-60(TB) leukemia = system: HL-60(TB) leukemia
# OVCAR-4 ovarian = system: OVCAR-4 ovarian
# EKVX NSCLC = system: EKVX NSCLC
# SF-295 CNS = system: SF-295 CNS
# RXF 393 renal = system: RXF 393 renal
# HOP-62 NSCLC = system: HOP-62 NSCLC
# OVCAR-5 ovarian = system: OVCAR-5 ovarian
# RPMI-8226 leukemia = system: RPMI-8226 leukemia
# IGROV1 ovarian = system: IGROV1 ovarian
# M14 melanoma = system: M14 melanoma
# COLO 205 colon = system: COLO 205 colon
# A549 NSCLC = system: A549 NSCLC
# SW-620 colon = system: SW-620 colon
# U251 CNS = system: U251 CNS
# PC-3 prostate = system: PC-3 prostate
# LOX IMVI melanoma = system: LOX IMVI melanoma
# NCI-H460 lung = system: NCI-H460 lung
# SR leukemia = system: SR leukemia
# SK-MEL-5 melanoma = system: SK-MEL-5 melanoma
# HCC-2998 colon = system: HCC-2998 colon
# OVCAR-8 ovarian = system: OVCAR-8 ovarian
# HOP-92 NSCLC = system: HOP-92 NSCLC
# HT29 colon = system: HT29 colon
# UO-31 renal = system: UO-31 renal
# NCI/ADR-RES ovarian = system: NCI/ADR-RES ovarian
# SK-OV-3 ovarian = system: SK-OV-3 ovarian
# DU-145 prostate = system: DU-145 prostate
# SK-MEL-28 melanoma = system: SK-MEL-28 melanoma
# CAKI-1 renal = system: CAKI-1 renal
# MDA-MB-231 breast = system: MDA-MB-231 breast
# HCT-15 colon = system: HCT-15 colon
# OVCAR-3 ovarian = system: OVCAR-3 ovarian
# MDA-MB-435 = system: MDA-MB-435
# HS 578T breast = system: HS 578T breast
# SN12C renal = system: SN12C renal
# MALME-3M melanoma = system: MALME-3M melanoma
# T-47D breast = system: T-47D breast
# 786-0 renal = system: 786-0 renal
# SF-268 CNS = system: SF-268 CNS
# NCI-H23 lung = system: NCI-H23 lung
# A498 renal = system: A498 renal
# SF-539 CNS = system: SF-539 CNS
smiles,measurement,setting,value
CCCCCCCCCCOC1C(C(O)CNCCCN(C)C)OC2OC3(CCCCC3)OC21 (configuration not stated),TGI,SNB-75 CNS,0.681 µM
same,TGI,SNB-19 CNS,3.24 µM
same,TGI,HCT-116 colon,3.53 µM
same,TGI,SK-MEL-2 melanoma,4 µM
same,TGI,MCF7 breast,3.7 µM
same,TGI,MDA-N,3.37 µM
same,TGI,CCRF-CEM leukemia,3.64 µM
same,TGI,UACC-257 melanoma,10.8 µM
same,TGI,MOLT-4 leukemia,3.87 µM
same,TGI,ACHN renal,8.09 µM
same,TGI,NCI-H522 lung,3.56 µM
same,TGI,TK-10 renal,6.55 µM
same,TGI,K-562 leukemia,3.47 µM
same,TGI,NCI-H226 lung,36.7 µM
same,TGI,KM12 colon,2.91 µM
same,TGI,UACC-62 melanoma,4.53 µM
same,TGI,HL-60(TB) leukemia,3.59 µM
same,TGI,OVCAR-4 ovarian,4.25 µM
same,TGI,EKVX NSCLC,7.6 µM
same,TGI,SF-295 CNS,3.52 µM
same,TGI,RXF 393 renal,3.7 µM
same,TGI,HOP-62 NSCLC,4.04 µM
same,TGI,OVCAR-5 ovarian,3.71 µM
same,TGI,RPMI-8226 leukemia,4.37 µM
same,TGI,IGROV1 ovarian,3.82 µM
same,TGI,M14 melanoma,3.55 µM
same,TGI,COLO 205 colon,3.43 µM
same,TGI,A549 NSCLC,11.7 µM
same,TGI,SW-620 colon,3.24 µM
same,TGI,U251 CNS,3.23 µM
same,TGI,PC-3 prostate,6.7 µM
same,TGI,LOX IMVI melanoma,2.68 µM
same,TGI,NCI-H460 lung,3.44 µM
same,TGI,SR leukemia,0.739 µM
same,TGI,SK-MEL-5 melanoma,3.34 µM
same,TGI,HCC-2998 colon,4.46 µM
same,TGI,OVCAR-8 ovarian,4.18 µM
same,TGI,HOP-92 NSCLC,5.33 µM
same,TGI,HT29 colon,3.12 µM
same,TGI,UO-31 renal,4.45 µM
same,TGI,NCI/ADR-RES ovarian,8.87 µM
same,TGI,SK-OV-3 ovarian,13.9 µM
same,TGI,DU-145 prostate,9.24 µM
same,TGI,SK-MEL-28 melanoma,3.1 µM
same,TGI,CAKI-1 renal,4.21 µM
same,TGI,MDA-MB-231 breast,3.31 µM
same,TGI,HCT-15 colon,3.21 µM
same,TGI,OVCAR-3 ovarian,3.59 µM
same,TGI,MDA-MB-435,3.56 µM
same,TGI,HS 578T breast,6.53 µM
same,TGI,SN12C renal,5.19 µM
same,TGI,MALME-3M melanoma,3.61 µM
same,TGI,T-47D breast,5.42 µM
same,TGI,786-0 renal,3.37 µM
same,TGI,SF-268 CNS,5.12 µM
same,TGI,NCI-H23 lung,3.01 µM
CC1(c2ccccc2)N=C(C(N)=O)c2[nH]cnc2N1 (configuration not stated),TGI,SNB-75 CNS,> 100 µM
same,TGI,SNB-19 CNS,> 100 µM
same,TGI,HCT-116 colon,> 100 µM
same,TGI,SK-MEL-2 melanoma,> 100 µM
same,TGI,MCF7 breast,> 100 µM
same,TGI,MDA-N,> 100 µM
same,TGI,CCRF-CEM leukemia,> 100 µM
same,TGI,UACC-257 melanoma,> 100 µM
same,TGI,ACHN renal,> 100 µM
same,TGI,NCI-H522 lung,> 100 µM
same,TGI,TK-10 renal,> 100 µM
same,TGI,K-562 leukemia,> 100 µM
same,TGI,A498 renal,> 100 µM
same,TGI,NCI-H226 lung,> 100 µM
same,TGI,KM12 colon,> 100 µM
same,TGI,UACC-62 melanoma,> 100 µM
same,TGI,HL-60(TB) leukemia,> 100 µM
same,TGI,OVCAR-4 ovarian,> 100 µM
same,TGI,EKVX NSCLC,> 100 µM
same,TGI,SF-295 CNS,> 100 µM
same,TGI,RXF 393 renal,> 100 µM
same,TGI,HOP-62 NSCLC,> 100 µM
same,TGI,OVCAR-5 ovarian,> 100 µM
same,TGI,RPMI-8226 leukemia,> 100 µM
same,TGI,IGROV1 ovarian,> 100 µM
same,TGI,M14 melanoma,> 100 µM
same,TGI,COLO 205 colon,> 100 µM
same,TGI,A549 NSCLC,> 100 µM
same,TGI,SW-620 colon,> 100 µM
same,TGI,U251 CNS,> 100 µM
same,TGI,PC-3 prostate,> 100 µM
same,TGI,LOX IMVI melanoma,> 100 µM
same,TGI,NCI-H460 lung,> 100 µM
same,TGI,SR leukemia,> 100 µM
same,TGI,SK-MEL-5 melanoma,> 100 µM
same,TGI,HCC-2998 colon,> 100 µM
same,TGI,OVCAR-8 ovarian,> 100 µM
same,TGI,HOP-92 NSCLC,> 100 µM
same,TGI,HT29 colon,> 100 µM
same,TGI,SF-539 CNS,> 100 µM
same,TGI,NCI/ADR-RES ovarian,> 100 µM
same,TGI,SK-OV-3 ovarian,> 100 µM
same,TGI,DU-145 prostate,> 100 µM
same,TGI,SK-MEL-28 melanoma,> 100 µM
same,TGI,CAKI-1 renal,> 100 µM
same,TGI,MDA-MB-231 breast,> 100 µM
same,TGI,HCT-15 colon,> 100 µM
same,TGI,OVCAR-3 ovarian,> 100 µM
same,TGI,MDA-MB-435,> 100 µM
same,TGI,HS 578T breast,> 100 µM
same,TGI,SN12C renal,> 100 µM
same,TGI,MALME-3M melanoma,> 100 µM
same,TGI,T-47D breast,> 100 µM
same,TGI,786-0 renal,> 100 µM
same,TGI,SF-268 CNS,> 100 µM
same,TGI,NCI-H23 lung,> 100 µM
